Measured values as given in US10112926B2 (priority 2014, dated 2018).
Where a name gives a salt, the structure may show the parent alone.

Key:
Vps34 = Vps34 (Homo sapiens (Human), UniProt Q8NEB9); conditions: read-out: Assay C VPS34 IC50
PI 4-kinase beta = PI 4-kinase beta (Homo sapiens (Human), UniProt Q9UBF8); conditions: read-out: Assay D PI4Kβ IC50
mTOR = mTOR (Homo sapiens (Human), UniProt P42345); conditions: read-out: Assay G mTOR IC50

Chain of PI 4-kinase beta (Q9UBF8 whole entry): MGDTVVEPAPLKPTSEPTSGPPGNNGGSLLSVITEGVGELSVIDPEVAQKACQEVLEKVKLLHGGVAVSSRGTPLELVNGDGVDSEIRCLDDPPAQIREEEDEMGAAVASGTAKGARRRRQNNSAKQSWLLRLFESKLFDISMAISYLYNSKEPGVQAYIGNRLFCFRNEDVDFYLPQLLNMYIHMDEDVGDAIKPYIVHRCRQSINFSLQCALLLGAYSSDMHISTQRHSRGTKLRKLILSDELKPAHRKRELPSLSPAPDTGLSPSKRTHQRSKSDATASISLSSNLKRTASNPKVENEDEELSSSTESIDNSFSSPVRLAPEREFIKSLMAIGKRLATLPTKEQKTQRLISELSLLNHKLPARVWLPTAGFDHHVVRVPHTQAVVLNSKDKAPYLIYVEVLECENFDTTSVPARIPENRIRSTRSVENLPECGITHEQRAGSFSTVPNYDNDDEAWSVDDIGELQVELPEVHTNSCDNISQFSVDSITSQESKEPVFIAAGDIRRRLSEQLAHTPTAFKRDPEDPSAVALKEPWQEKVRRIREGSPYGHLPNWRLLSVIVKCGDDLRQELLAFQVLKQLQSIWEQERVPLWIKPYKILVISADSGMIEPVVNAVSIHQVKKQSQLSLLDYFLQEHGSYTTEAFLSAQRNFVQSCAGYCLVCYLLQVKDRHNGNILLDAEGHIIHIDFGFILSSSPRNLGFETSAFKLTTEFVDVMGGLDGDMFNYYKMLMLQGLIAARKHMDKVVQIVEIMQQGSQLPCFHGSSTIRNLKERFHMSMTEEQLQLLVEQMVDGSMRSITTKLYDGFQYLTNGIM
Chain of Vps34 (Q8NEB9 whole entry): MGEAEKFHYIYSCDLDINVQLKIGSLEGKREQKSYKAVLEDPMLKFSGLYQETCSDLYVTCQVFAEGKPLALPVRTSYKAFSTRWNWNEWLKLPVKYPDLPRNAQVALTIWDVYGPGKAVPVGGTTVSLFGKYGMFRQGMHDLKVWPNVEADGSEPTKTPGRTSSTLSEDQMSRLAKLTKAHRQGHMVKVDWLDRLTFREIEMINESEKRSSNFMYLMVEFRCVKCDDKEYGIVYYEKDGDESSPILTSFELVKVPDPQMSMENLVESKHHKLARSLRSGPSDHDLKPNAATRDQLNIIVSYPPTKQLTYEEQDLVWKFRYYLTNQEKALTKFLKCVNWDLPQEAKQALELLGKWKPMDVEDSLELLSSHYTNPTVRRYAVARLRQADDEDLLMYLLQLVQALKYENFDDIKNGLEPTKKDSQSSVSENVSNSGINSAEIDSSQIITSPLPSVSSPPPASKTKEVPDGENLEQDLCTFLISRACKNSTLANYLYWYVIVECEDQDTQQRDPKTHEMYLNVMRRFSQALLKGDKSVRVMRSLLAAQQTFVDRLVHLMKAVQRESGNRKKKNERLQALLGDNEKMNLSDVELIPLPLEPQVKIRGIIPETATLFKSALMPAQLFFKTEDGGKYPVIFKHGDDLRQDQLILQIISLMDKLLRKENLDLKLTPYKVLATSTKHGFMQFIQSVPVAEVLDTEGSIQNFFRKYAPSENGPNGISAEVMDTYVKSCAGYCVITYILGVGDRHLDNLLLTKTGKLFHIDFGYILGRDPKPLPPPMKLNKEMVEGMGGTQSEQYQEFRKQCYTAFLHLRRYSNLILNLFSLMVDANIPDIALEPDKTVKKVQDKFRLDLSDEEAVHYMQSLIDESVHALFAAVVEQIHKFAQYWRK

SMILES: Cc1cccc(NS(=O)(=O)c2ccc(C)c(-c3cnc(N)c(-c4cnn(CC(F)(F)F)c4)c3)c2)n1 [Example 1, 3-{6-Amino-5-[1-(2,2,2-trifluoro-ethyl)-1H-pyrazol-4-yl]-pyridin-3-yl}-4-methyl-N-(6-methyl-pyridin-2-yl)-benzenesulfonamide]
- IC50 (Vps34): > 9.1 µM
- IC50 (PI 4-kinase beta): 1.95 µM
- IC50 (mTOR): 2.37 µM

SMILES: Cc1ccc(S(=O)(=O)NCCC(C)(C)O)cc1-c1cnc(N)c(-c2cnn(C)c2)c1 [Example 2, 3-(6-Amino-5-(1-methyl-1H-pyrazol-4-yl)pyridin-3-yl)-N-(3-hydroxy-3-methylbutyl)-4-methylbenzenesulfonamide]
- IC50 (Vps34): > 9.1 µM
- IC50 (PI 4-kinase beta): 5.4 µM
- IC50 (mTOR): > 9.1 µM

SMILES: Cc1ccc(S(=O)(=O)N[C@H]2CC[C@H](O)CC2)cc1-c1cnc(N)c(-c2cnn(CC(F)(F)F)c2)c1 [Example 4.2, trans 3-(6-Amino-5-(1-(2,2,2-trifluoroethyl)-1H-pyrazol-4-yl)pyridin-3-yl)-N-(4-hydroxycyclohexyl)-4-methyl-benzenesulfonamide]
- IC50 (Vps34): > 10 µM
- IC50 (PI 4-kinase beta): 0.65 µM
- IC50 (mTOR): 1.3 µM

SMILES: Cc1ccc(S(=O)(=O)NCC(C)(C)O)cc1-c1cnc(N)c(-c2cnn(C)n2)c1 [Example 4.4, 3-(6-amino-5-(2-methyl-2H-1,2,3-triazol-4-yl)pyridin-3-yl)-N-(2-hydroxy-2-methylpropyl)-4-methylbenzenesulfonamide hydrochloride]
- IC50 (Vps34): > 10 µM
- IC50 (PI 4-kinase beta): 8.2 µM
- IC50 (mTOR): > 10 µM

SMILES: Cc1ccc(S(=O)(=O)N[C@H]2CC[C@H](O)CC2)cc1-c1cnc(N)c(-c2cnn(C)n2)c1 [Example 4.5, trans 3-(6-Amino-5-(2-methyl-2H-1,2,3-triazol-4-yl)pyridin-3-yl)-N-(4-hydroxycyclohexyl)-4-methylbenzene sulfonamide hydrochloride]
- IC50 (Vps34): > 10 µM
- IC50 (PI 4-kinase beta): 5.25 µM
- IC50 (mTOR): > 10 µM

SMILES: CCc1cc(-c2cc(-c3cc(S(=O)(=O)NCC(C)(C)O)ccc3C)cnc2N)on1 [Example 4.6, 3-(6-Amino-5-(3-ethylisoxazol-5-yl)pyridin-3-yl)-N-(2-hydroxy-2-methylpropyl)-4-methyl-benzenesulfonamide hydrochloride]
- IC50 (Vps34): > 10 µM
- IC50 (PI 4-kinase beta): 2.7 µM
- IC50 (mTOR): 1.4 µM

SMILES: Cc1cc(-c2cc(-c3cc(S(=O)(=O)NC[C@H]4CCOC4)ccc3C)cnc2N)on1 [Example 4.7, (R)-3-(6-Amino-5-(3-methylisoxazol-5-yl)pyridin-3-yl)-4-methyl-N-((tetra hydrofuran-3-yl)methyl)benzene-sulfonamide hydrochloride]
- IC50 (Vps34): > 10 µM
- IC50 (PI 4-kinase beta): 1.7 µM
- IC50 (mTOR): 7.7 µM

SMILES: Cc1cc(-c2cc(-c3cc(S(=O)(=O)NCC(C)(C)O)ccc3C)cnc2N)sn1 [Example 4.8, 3-(6-Amino-5-(3-methylisothiazol-5-yl)pyridin-3-yl)-N-(2-hydroxy-2-methylpropyl)-4-methyl-benzenesulfonamide hydrochloride]
- IC50 (Vps34): > 10 µM
- IC50 (PI 4-kinase beta): 3.15 µM
- IC50 (mTOR): > 10 µM

SMILES: Cc1noc(-c2cc(-c3cc(S(=O)(=O)NCC4(C)COC4)ccc3C)cnc2N)n1 [Example 4.9, 3-(6-Amino-5-(3-methyl-1,2,4-oxadiazol-5-yl)pyridin-3-yl)-4-methyl-N-((3-methyloxetan-3-yl)methyl)benzene-sulfonamide]
- IC50 (Vps34): > 10 µM
- IC50 (PI 4-kinase beta): > 10 µM
- IC50 (mTOR): > 10 µM

SMILES: Cc1noc(-c2cc(-c3cc(S(=O)(=O)NCCC(C)(C)O)ccc3C)cnc2N)n1 [Example 5, 3-[6-Amino-5-(3-methyl-[1,2,4]oxadiazol-5-yl)-pyridin-3-yl]-N-(3-hydroxy-3-methyl-butyl)-4-methyl-benzenesulfonamide hydrochloride]
- IC50 (Vps34): > 9.55 µM
- IC50 (PI 4-kinase beta): 4.9 µM
- IC50 (mTOR): 6.5 µM

SMILES: Cc1ccc(S(=O)(=O)NCC(C)(C)O)cc1-c1cnc(N)c(-c2nc(C(C)C)no2)c1 [Example 5.1, 3-(6-Amino-5-(3-isopropyl-1,2,4-oxadiazol-5-yl)pyridin-3-yl)-N-(2-hydroxy-2-methylpropyl)-4-methylbenzenesulfonamide hydrochloride]
- IC50 (Vps34): > 10 µM
- IC50 (PI 4-kinase beta): 4.4 µM
- IC50 (mTOR): 8.2 µM

SMILES: Cc1cnc(-c2cc(-c3cc(S(=O)(=O)N[C@H]4CC[C@H](O)CC4)ccc3C)cnc2N)o1 [Example 5.2, trans 3-(6-Amino-5-(5-methyloxazol-2-yl)pyridin-3-yl)-N-(4-hydroxycyclohexyl)-4-methylbenzene sulfonamide hydrochloride]
- IC50 (Vps34): > 10 µM
- IC50 (PI 4-kinase beta): 0.9 µM
- IC50 (mTOR): > 10 µM

SMILES: Cc1ncc(-c2cc(-c3cc(S(=O)(=O)NCCCO)ccc3C)cnc2N)s1 [Example 9, 3-[6-Amino-5-(2-methyl-thiazol-5-yl)-pyridin-3-yl]-N-(3-hydroxy-propyl)-4-methyl-benzenesulfonamide]
- IC50 (Vps34): 0.89 µM
- IC50 (PI 4-kinase beta): 1.92 µM
- IC50 (mTOR): 5.9 µM

SMILES: Cc1noc(-c2cc(-c3cc(S(=O)(=O)NOCC(C)(C)O)ccc3C)cnc2N)n1 [Example 11, 3-[6-Amino-5-(3-methyl-[1,2,4]oxadiazol-5-yl)-pyridin-3-yl]-N-(2-hydroxy-2-methyl-propoxy)-4-methyl-benzenesulfonamide, hydrochloride salt]
- IC50 (Vps34): > 10 µM
- IC50 (PI 4-kinase beta): 5.1 µM
- IC50 (mTOR): > 10 µM

SMILES: Cc1noc(-c2cc(-c3cc(S(=O)(=O)N[C@H]4CC[C@H](O)CC4)ccc3C)cnc2N)n1 [Example 12, trans 3-[6-Amino-5-(3-methyl-[1,2,4]oxadiazol-5-yl)-pyridin-3-yl]-N-(4-hydroxy-cyclohexyl)-4-methyl-benzenesulfonamide, hydrochloride salt]
- IC50 (Vps34): > 10 µM
- IC50 (PI 4-kinase beta): 5.3 µM
- IC50 (mTOR): > 10 µM

SMILES: Cc1ncc(-c2cc(-c3cc(S(=O)(=O)NCCC(C)(C)O)ccc3C)cnc2N)o1 [Example 13, 3-[6-Amino-5-(2-methyl-oxazol-5-yl)-pyridin-3-yl]-N-(3-hydroxy-3-methyl-butyl)-4-methyl-benzenesulfonamide, hydrochloride salt]
- IC50 (Vps34): > 10 µM
- IC50 (PI 4-kinase beta): 4.4 µM
- IC50 (mTOR): 1.6 µM

SMILES: Cc1ccc(S(=O)(=O)NCCC(C)(C)O)cc1-c1cnc(N)c(-c2ccncc2)c1 [Example 18, 3-(2-Amino-[3,4′]bipyridinyl-5-yl)-N-(3-hydroxy-3-methyl-butyl)-4-methyl-benzenesulfonamide]
- IC50 (Vps34): > 9.1 µM
- IC50 (PI 4-kinase beta): > 9.1 µM
- IC50 (mTOR): > 9.1 µM

SMILES: Cc1noc(-c2cc(-c3cc(S(=O)(=O)N[C@H]4CC[C@H](CO)CC4)ccc3C)cnc2N)n1 [Example 19, trans 3-[6-Amino-5-(3-methyl-[1,2,4]oxadiazol-5-yl)-pyridin-3-yl]-N-(4-hydroxymethyl-cyclohexyl)-4-methyl-benzenesulfonamide hydrochloride]
- IC50 (Vps34): > 10 µM
- IC50 (PI 4-kinase beta): 1.3 µM
- IC50 (mTOR): > 10 µM

SMILES: Cc1noc(-c2cc(-c3cc(S(=O)(=O)NCC4CCOC4)ccc3C)cnc2N)n1 (centres unmarked) [Example 29, 3-(6-Amino-5-(3-methyl-1,2,4-oxadiazol-5-yl)pyridin-3-yl)-4-methyl-N-((tetrahydrofuran-3-yl)methyl)benzenesulfonamide]
- IC50 (Vps34): > 10 µM
- IC50 (PI 4-kinase beta): 9.9 µM
- IC50 (mTOR): > 10 µM

SMILES: Cc1noc(-c2cc(-c3cc(S(=O)(=O)NCCC4(O)CCCC4)ccc3C)cnc2N)n1 [Example 37.11, 3-(6-Amino-5-(3-methyl-1,2,4-oxadiazol-5-yl)pyridin-3-yl)-N-(2-(1-hydroxycyclopentyl)ethyl)-4-methylbenzenesulfonamide]
- IC50 (Vps34): > 10 µM
- IC50 (PI 4-kinase beta): 8.1 µM
- IC50 (mTOR): > 10 µM

SMILES: Cc1noc(-c2cc(-c3cc(S(=O)(=O)NCC4(CO)CCCC4)ccc3C)cnc2N)n1 [Example 37.13, 3-(6-Amino-5-(3-methyl-1,2,4-oxadiazol-5-yl)pyridin-3-yl)-N-((1-(hydroxymethyl)cyclopentyl)methyl)-4-methylbenzenesulfonamide]
- IC50 (Vps34): > 10 µM
- IC50 (PI 4-kinase beta): 5 µM
- IC50 (mTOR): > 10 µM

SMILES: Cc1noc(-c2cc(-c3cc(S(=O)(=O)NCC4(O)CCC4)ccc3C)cnc2N)n1 [Example 37.15, 3-(6-Amino-5-(3-methyl-1,2,4-oxadiazol-5-yl)pyridin-3-yl)-N-((1-hydroxycyclobutyl)methyl)-4-methylbenzenesulfonamide]
- IC50 (Vps34): > 10 µM
- IC50 (PI 4-kinase beta): 5.4 µM
- IC50 (mTOR): > 10 µM

SMILES: Cc1noc(-c2cc(-c3cc(S(=O)(=O)NCC(C)(C)CO)ccc3C)cnc2N)n1 [Example 37.18, 3-(6-Amino-5-(3-methyl-1,2,4-oxadiazol-5-yl)pyridin-3-yl)-N-(3-hydroxy-2,2-dimethylpropyl)-4-methylbenzenesulfonamide hydrochloride]
- IC50 (Vps34): > 10 µM
- IC50 (PI 4-kinase beta): > 10 µM
- IC50 (mTOR): > 10 µM

SMILES: Cc1noc(-c2cc(-c3cc(S(=O)(=O)NCC4(CO)CCC4)ccc3C)cnc2N)n1 [Example 37.26, 3-(6-Amino-5-(3-methyl-1,2,4-oxadiazol-5-yl)pyridin-3-yl)-N-((1-(hydroxymethyl)cyclobutyl)methyl)-4-methylbenzenesulfonamide]
- IC50 (Vps34): > 10 µM
- IC50 (PI 4-kinase beta): > 10 µM
- IC50 (mTOR): > 10 µM

SMILES: Cc1noc(-c2cc(-c3cc(S(=O)(=O)N4CC(CO)C4)ccc3C)cnc2N)n1 [Example 37.39, (S)-((3-(6-Amino-5-(3-methyl-1,2,4-oxadiazol-5-yl)pyridin-3-yl)-4-methylphenyl)sulfonyl)azetidin-3-yl)methanol]
- IC50 (Vps34): > 10 µM
- IC50 (PI 4-kinase beta): 4.8 µM
- IC50 (mTOR): > 10 µM

SMILES: CCCONS(=O)(=O)c1ccc(C)c(-c2cnc(N)c(-c3nc(C)no3)c2)c1 [Example 44, 3-(6-Amino-5-(3-methyl-1,2,4-oxadiazol-5-yl)pyridin-3-yl)-4-methyl-N-propoxybenzenesulfonamide]
- IC50 (Vps34): > 10 µM
- IC50 (PI 4-kinase beta): 3.55 µM
- IC50 (mTOR): > 10 µM

SMILES: Cc1ncc(-c2cc(-c3cc(S(=O)(=O)N[C@H]4CC[C@H](O)CC4)ccc3C)cnc2N)o1 [Example 98, 3-(6-amino-5-(2-methyloxazol-5-yl)pyridin-3-yl)-N-((1r,4r)-4-hydroxycyclohexyl)-4-methylbenzenesulfonamide hydrochloride]
- IC50 (PI 4-kinase beta): 0.83 µM
- IC50 (mTOR): 7.9 µM
